Converted amounts (≈) assume the structure as drawn. Where two headings read alike, the source gives them in different places. Bounds are passed on as bounds.

For series [1], the system named is Enterococcus faecalis ATCC 29212. As to the kind of experiment: Antibacterial MIC. Particulars: for MIC: Enterococcus faecalis, ATCC29212, read-out: MIC Enterococcus faecalis ATCC 29212. The series is classed as cell-based.
Series [2] concerns Staphylococcus aureus MSSA ATCC 29213. As to the kind of experiment: Antibacterial MIC. The format is cell-based. The note with it: for MIC: Staphylococcus aureus, read-out: MIC Staphylococcus aureus MSSA ATCC 29213.
Series [3] relates to E. faecalis ATCC 51299 VanB. As to the kind of experiment: Antibacterial MIC. Particulars: for MIC: Enterococcus faecalis, ATCC51299, read-out: MIC E. faecalis ATCC 51299 VanB. The series is classed as cell-based, Enterococcus faecalis.
Series [4] deals with MDCK cells.
Series [5] concerns Staphylococcus epidermidis ATCC 35984 biofilm. As to the kind of experiment: Antibacterial MIC. The format is cell-based.
Series [6] deals with Vero cells. The note with it: African green monkey.
The test system of series [7] is S. aureus MRSA ATCC 33591. As to the kind of experiment: Antibacterial MIC. The format is cell-based, Staphylococcus aureus. Particulars: for MIC: Staphylococcus aureus, read-out: MIC S. aureus MRSA ATCC 33591.
Series [8] relates to E. faecalis 15376 VanA. As to the kind of experiment: Antibacterial MIC. The series is classed as cell-based, Enterococcus faecalis. The note with it: for MIC: Enterococcus faecalis, 15376VANA, read-out: MIC E. faecalis 15376 VanA.
Series [9] deals with Bacillus subtilis ATCC 6633. As to the kind of experiment: Antibacterial MIC. Particulars: for MIC: Bacillus subtilis, ATCC6633, read-out: MIC Bacillus subtilis ATCC 6633. The series is classed as cell-based.
In series [10] the test system is HeLa cells. Particulars: human.
Series [11] concerns influenza A and B viruses. The series is classed as cell-based, influenza virus.
For series [12], the system named is HEL human embryonic lung fibroblast cells.
Series [13] has as its system panel of Gram-positive bacteria. The format is cell-based.
For series [14], the system named is influenza A/H1N1 A/Ned/378/05. As to the kind of experiment: microbe, parasite or virus in culture. The series is classed as cell-based, influenza A virus.
Series [15] deals with influenza A/H3N2 A/Victoria/361/11. As to the kind of experiment: microbe, parasite or virus in culture. The series is classed as cell-based, influenza A virus.
Series [16] relates to influenza B virus B/Ned/537/05. As to the kind of experiment: CPE reduction assay for influenza virus in MDCK cells, influenza B. The series is classed as cell-based. Particulars: MDCK cells. Here is the method:
The CPE reduction assay for influenza virus was described in full detail in previous publications.41 The virus strains were: A/PR/8/34 (A/H1 N1); A/Virginia/ATCC3/2009 (A/H1 N1pdm); A/HK/7/87 (A/H3 N2); B/Ned/537/05; and B/HK/5/72. On day 0, Madin‐Darby canine kidney (MDCK) cells in 96‐well plates were infected with influenza virus at a multiplicity of infection (MOI) of 0.0004 plaque forming units (PFU) per cell. After three days incubation at 35 °C, virus‐induced CPE and compound cytotoxicity were scored by microscopy, after which the data were confirmed by formazan‐based MTS cell viability assay (CellTiter 96® AQueous One Solution Cell Proliferation Assay from Promega). The antiviral effect was expressed as the compound concentration producing 50 % inhibition of the virus‐induced CPE (EC50). Compound cytotoxicity was expressed as the compound concentration causing minimal changes in cell morphology (MCC), and 50 % cytotoxic concentration (CC50) based on MTS assay.42

As usually defined, the MIC is the least concentration at which growth counts as inhibited. What is called CC50 is the concentration at which the toxic effect on the cells reaches its halfway point. Consider `CC(=O)NC1C(OC2c3ccc(c(Cl)c3)Oc3cc4cc(c3O)Oc3ccc(cc3Cl)CC3NC(=O)C(n5cc(COCCOCCCC(F)(F)C(F)(F)C(F)(F)C(F)(F)F)nn5)c5ccc(O)c(c5)Oc5cc(O)cc(c5)C(NC3=O)C(=O)NC4C(=O)NC3C(=O)NC2C(=O)NC(C(=O)O)c2cc(O)cc(O)c2-c2cc3ccc2O)OC(CO)C(O)C1O` (centres unmarked) [Compound 15], for which the MIC in series [1] is 0.5 µg/mL (≈ 0.28 µM); in series [2], 0.5 µg/mL (≈ 0.28 µM); in [3] it was 4 µg/mL (≈ 2.24 µM); in series [7] it was 0.5 µg/mL (≈ 0.28 µM); in [8], 1 µg/mL (≈ 0.559 µM); in series [9] it was 0.5 µg/mL (≈ 0.28 µM). The CC50 is over 100 µM in series [4] (dog), over 100 µM in series [6], 43 µM in [10] and over 100 µM in series [12]. For the same compound, the “Cytotoxicity MCC (minimum cytotoxic concentration)” value in [4] (dog) came out at 100 µM. Besides, in series [5], the “MIC Staphylococcus epidermidis ATCC 35984 biofilm” value was determined as 0.5 µg/mL (≈ 0.28 µM). For the same compound, the “Cytotoxicity MCC” value in series [6] is given as over 100. Further, in series [11], the “Activity against influenza strains (in words)” value is recorded as “robust activity”.

Take `CC(=O)NC1C(OC2c3ccc(c(Cl)c3)Oc3cc4cc(c3O)Oc3ccc(cc3Cl)CC3NC(=O)C(n5cc(COCCOCCCC(F)(F)C(F)(F)C(F)(F)C(F)(F)C(F)(F)C(F)(F)C(F)(F)C(F)(F)F)nn5)c5ccc(O)c(c5)Oc5cc(O)cc(c5)C(NC3=O)C(=O)NC4C(=O)NC3C(=O)NC2C(=O)NC(C(=O)O)c2cc(O)cc(O)c2-c2cc3ccc2O)OC(CO)C(O)C1O` (centres unmarked) [Compound 17]: the MIC came out at 256 µg/mL (≈ 129 µM) in series [1]; 16 µg/mL (≈ 8.05 µM) in [2]; 256 µg/mL (≈ 129 µM) in series [3]; 16 µg/mL (≈ 8.05 µM) in series [7]; 256 µg/mL (≈ 129 µM) in [8]; 128 µg/mL (≈ 64.4 µM) in series [9]. The CC50 was 44 µM in series [4] (dog), over 100 µM in series [6], over 100 µM in [10] and over 100 µM in series [12]. In addition, the “Cytotoxicity MCC (minimum cytotoxic concentration)” value in series [4] (dog) came to 100 µM. Also, the “MIC Staphylococcus epidermidis ATCC 35984 biofilm” value in series [5] was found to be 16 µg/mL (≈ 8.05 µM). Moreover, the “Cytotoxicity MCC” value in series [10] is recorded as over 100. The “Activity against influenza strains (in words)” value in series [11] was “robust activity”.

For the compound `CN[C@H](CC(C)C)C(=O)N[C@H]1C(=O)N[C@@H](CC(N)=O)C(=O)N[C@H]2C(=O)N[C@H]3C(=O)N[C@H](C(=O)N[C@H](C(=O)O)c4cc(O)cc(O)c4-c4cc3ccc4O)[C@H](O)c3ccc(c(Cl)c3)Oc3cc2cc(c3O[C@@H]2O[C@H](CO)[C@@H](O)[C@H](O)[C@H]2O[C@H]2C[C@](C)(N)[C@H](O)[C@H](C)O2)Oc2ccc(cc2Cl)[C@H]1O` [VAN, vancomycin], the minimal inhibitory concentration (MIC) in series [1] turned out to be 1 µg/mL (≈ 0.69 µM); in series [2] it was 0.5 µg/mL (≈ 0.345 µM); in series [3], 128 µg/mL (≈ 88.3 µM); in series [7], 0.5 µg/mL (≈ 0.345 µM); in series [8], 256 µg/mL (≈ 177 µM); in [9], 0.5 µg/mL (≈ 0.345 µM). For the same compound, in [5], the “MIC Staphylococcus epidermidis ATCC 35984 biofilm” value amounted to 2 µg/mL (≈ 1.38 µM).

As to `CC(=O)NC1C(OC2c3ccc(c(Cl)c3)Oc3cc4cc(c3O)Oc3ccc(cc3Cl)CC3NC(=O)C(n5cc(COCCOCCOCCOCCOCCCC(F)(F)C(F)(F)C(F)(F)C(F)(F)C(F)(F)C(F)(F)C(F)(F)C(F)(F)F)nn5)c5ccc(O)c(c5)Oc5cc(O)cc(c5)C(NC3=O)C(=O)NC4C(=O)NC3C(=O)NC2C(=O)NC(C(=O)O)c2cc(O)cc(O)c2-c2cc3ccc2O)OC(CO)C(O)C1O` (centres unmarked) [Compound 18], the MIC worked out at 16 µg/mL (≈ 7.55 µM) in series [1]; 8 µg/mL (≈ 3.77 µM) in series [2]; 32 µg/mL (≈ 15.1 µM) in series [3]; 4 µg/mL (≈ 1.89 µM) in series [7]; 32 µg/mL (≈ 15.1 µM) in [8]; 4 µg/mL (≈ 1.89 µM) in series [9]. Also, in series [4], the “Cytotoxicity in MDCK cells (in words)” value is “high cytotoxicity”. Also, the 50% cytotoxic concentration (CC50) in series [4] (dog) was 4.2 µM; in series [6] it was over 100 µM; in [10] it was 41 µM; in series [12], over 100 µM. In series [5], the “MIC Staphylococcus epidermidis ATCC 35984 biofilm” value amounted to 4 µg/mL (≈ 1.89 µM). For the same compound, the “Activity against influenza strains (in words)” value in series [11] is recorded as “without antiviral activity”.

Take `CC(C)C[C@H](C(=O)N[C@H]1C(=O)N[C@@H](CC(N)=O)C(=O)N[C@H]2C(=O)N[C@H]3C(=O)N[C@H](C(=O)N[C@H](C(=O)O)c4cc(O)cc(O)c4-c4cc3ccc4O)[C@H](O)c3ccc(c(Cl)c3)Oc3cc2cc(c3O)Oc2ccc(cc2Cl)[C@H]1O)n1cc(COCCOCCOCCOCCOCCCC(F)(F)C(F)(F)C(F)(F)C(F)(F)F)nn1` [Compound 12]: the MIC in [1] is 8 µg/mL (≈ 4.85 µM); in series [2], 4 µg/mL (≈ 2.43 µM); in [3] it was 16 µg/mL (≈ 9.71 µM); in [7], 8 µg/mL (≈ 4.85 µM); in series [8], 16 µg/mL (≈ 9.71 µM); in [9], 32 µg/mL (≈ 19.4 µM). Further, the “Cytotoxicity in MDCK cells (in words)” value in [4] is “highly cytotoxic”. Besides, the values for the CC50 in [4] (dog) and in series [10] were 4 µM and over 100 µM, respectively. Further, in series [4] (dog), the “Cytotoxicity MCC (minimum cytotoxic concentration)” value stood at 42 µM. In addition, the “MIC Staphylococcus epidermidis ATCC 35984 biofilm” value in [5] worked out at 8 µg/mL (≈ 4.85 µM). Moreover, in series [13], the “Antibacterial activity (in words)” value was “moderate activity”. In series [10], the “Cytotoxicity MCC” value is over 100.

Consider `CC(=O)N[C@H]1[C@H](O[C@@H]2c3ccc(c(Cl)c3)Oc3cc4cc(c3O)Oc3ccc(cc3Cl)C[C@H]3NC(=O)[C@H](N=[N+]=[N-])c5ccc(O)c(c5)Oc5cc(O)cc(c5)[C@H](NC3=O)C(=O)N[C@H]4C(=O)N[C@H]3C(=O)N[C@@H]2C(=O)N[C@H](C(=O)O)c2cc(O)cc(O)c2-c2cc3ccc2O)O[C@H](CO)[C@@H](O)[C@@H]1O` [Compound 14], for which, in series [4] (dog), the CC50 is over 100 µM and the “Cytotoxicity MCC (minimum cytotoxic concentration)” value is over 100 µM.

Consider teicoplanin [reference compound], for which, in series [1], the “MIC Enterococcus faecalis ATCC 29212” value worked out at 2 µg/mL. Also, the “MIC Staphylococcus aureus MSSA ATCC 29213” value in series [2] (methicillin-sensitive) is 0.5 µg/mL. Besides, the “MIC E. faecalis ATCC 51299 VanB” value in series [3] (vanB gene positive) was 4 µg/mL. The EC50 in series [14] (read-out: Antiviral EC50 A/H1N1 CPE) is over 100 µM; in series [14] (read-out: Antiviral EC50 A/H1N1 MTS), over 100 µM; in [15] (read-out: Antiviral EC50 A/H3N2 CPE), over 100 µM; in series [15] (read-out: Antiviral EC50 A/H3N2 MTS) it was over 100 µM; in [16] (B/Ned/537/05, MTS assay, read-out: Antiviral EC50 Influenza B MTS) it was over 100 µM; in series [16] (B/Ned/537/05, visual CPE scoring, read-out: Antiviral EC50 Influenza B CPE) it was over 100 µM. Also, in series [4], the CC50 is over 100 µM. Besides, the “Cytotoxicity MCC (minimum cytotoxic concentration)” value in series [4] is over 100 µM. Besides, in [5], the “MIC Staphylococcus epidermidis ATCC 35984 biofilm” value is 2 µg/mL. Moreover, in [7] (methicillin-resistant), the “MIC S. aureus MRSA ATCC 33591” value stood at 0.5 µg/mL. Moreover, the “MIC E. faecalis 15376 VanA” value in series [8] (vanA gene positive) came to 256 µg/mL. Moreover, in [9], the “MIC Bacillus subtilis ATCC 6633” value is 0.5 µg/mL.

Consider `CC(=O)NC1C(OC2c3ccc(c(Cl)c3)Oc3cc4cc(c3O)Oc3ccc(cc3Cl)CC3NC(=O)C(n5cc(COCCOCCOCCOCCOCCCC(F)(F)C(F)(F)C(F)(F)C(F)(F)F)nn5)c5ccc(O)c(c5)Oc5cc(O)cc(c5)C(NC3=O)C(=O)NC4C(=O)NC3C(=O)NC2C(=O)NC(C(=O)O)c2cc(O)cc(O)c2-c2cc3ccc2O)OC(CO)C(O)C1O` (centres unmarked) [Compound 16], for which the MIC turned out to be 1 µg/mL (≈ 0.521 µM) in series [1]; 0.5 µg/mL (≈ 0.26 µM) in series [2]; 1 µg/mL (≈ 0.521 µM) in series [3]; 0.5 µg/mL (≈ 0.26 µM) in series [7]; 2 µg/mL (≈ 1.04 µM) in series [8]; 2 µg/mL (≈ 1.04 µM) in [9]. Further, the CC50 in series [4] (dog) was 97 µM; in series [6] it was over 100 µM; in [10], over 100 µM; in [12], over 100 µM. Further, the “Cytotoxicity MCC (minimum cytotoxic concentration)” value in series [4] (dog) stood at 100 µM. Further, the “MIC Staphylococcus epidermidis ATCC 35984 biofilm” value in series [5] came to 0.5 µg/mL (≈ 0.26 µM). The “Cytotoxicity MCC” value in series [10] was over 100. In [11], the “Activity against influenza strains (in words)” value was “robust activity”.

The values are drawn from PMC7540527, “Synthesis of Antiviral Perfluoroalkyl Derivatives of Teicoplanin and Vancomycin” (Chemmedchem, 2020).
